Values of other authors, collected in patent US8716300B2, “Frequency modulated drug delivery (FMDD)” (Synthonics, Inc., priority 2008, dated 2014).

Legend:
[1] = system: MES induced seizures; details: combined treatment of dizocilpine with valproate
[2] = system: reserpinized rats; details: remacemide 5 mg/kg administered with lowest effective dose of levodopa (75 mg/kg)

Compound	protection against MES induced seizures [1] [%]	reduction in the ED50 of valproate ([1]; MES induced seizures) [fold]	increase in horizontal motor activity over levodopa given alone [2] [fold]
C[C@]12N[C@H](Cc3ccccc31)c1ccccc12 [dizocilpine]	50	~3	–
CC(Cc1ccccc1)(NC(=O)CN)c1ccccc1 (stereo not drawn) [remacemide]	–	–	9
